ChEMBL document CHEMBL5724558, “Image-based profiling of drug vulnerabilities in CRC organoids” (2024)
Values joined by “and” are separate entries in the source; they are usually repeats but may differ in a detail not shown here. Equal entries are not always repeated.

Assays:
Format in all cases: functional, Homo sapiens
Set-up in all cases: dose or concentration left out as unconfirmed
Colon cancer organoid [1] = assay: Image-based profiling of donated chemical probes and chemogenomic kinase set in O21 CRC organoid. Image analysis is performed on the sum area metric, and the data were normalized to the DMSO control. After imaging the organoid viability is measured using the OneGloEX Luciferase Assay System. The normalized viability data and sum area are reported.
Colon cancer organoid [2] = assay: Image-based profiling of donated chemical probes and chemogenomic kinase set in O09 CRC organoid. Image analysis is performed on the sum area metric, and the data were normalized to the DMSO control. After imaging the organoid viability is measured using the OneGloEX Luciferase Assay System. The normalized viability data and sum area are reported.
Colon cancer organoid [3] = assay: Image-based profiling of donated chemical probes and chemogenomic kinase set in O06 CRC organoid. Image analysis is performed on the sum area metric, and the data were normalized to the DMSO control. After imaging the organoid viability is measured using the OneGloEX Luciferase Assay System. The normalized viability data and sum area are reported.

Compound | Cell Viability (Colon cancer organoid [1]; Replication number 1) | Cell Viability (Colon cancer organoid [1]; Replication number 2) | Cell Viability (Colon cancer organoid [2]; Replication number 1) | Cell Viability (Colon cancer organoid [2]; Replication number 2) | Cell Viability (Colon cancer organoid [3]; Replication number 1) | Cell Viability (Colon cancer organoid [3]; Replication number 2)
C[C@@H](c1cccc(CN)c1)n1cc(Cl)cc(C(N)=O)c1=N.Cl | 113.852% and 117.315% | 85.2053% and 83.6166% | 102.95% and 110.479% | 109.454% and 89.4132% | 106.874% and 116.842% | 95.2274% and 108.361%
CC1=C(C(=O)Nc2cc3cn[nH]c3cc2F)C(c2ccc(C(F)(F)F)cc2)CC(=O)N1 (stereo unspecified) | 120.369% and 99.2335% | 116.368% and 107.089% | 137.27% and 97.7404% | 200.569% and 118.509% | 108.292% and 112.394% | 105.064% and 92.1337%
CCC(=N\O)/C(C)=C/c1ccc(F)c(C)c1 [A-226] | 109.207% and 89.6507% | 103.65% and 86.2245% | 100.912% and 93.6554% | 132.086% and 110.405% | 97.0228% and 105.855% | 79.4149% and 80.7818%
Cn1nc(C(F)(F)F)cc1-c1cnc(N2CCc3cc(S(=O)(=O)Nc4c(F)cc(Cl)cc4F)cc(N4CCCC4=O)c32)nc1 [TP-020] | 100.4% and 89.0686% | 74.5209% and 80.6122% | 176.236% and 116.591% | 145.95% and 107.484% | 97.5497% and 105.152% | 112.528% and 137.4%
CC(=O)N1CCC(c2ccc(C(=O)NC3=NCCN3)cc2C(F)(F)F)CC1 [BI 0054] | 108.593% and 93.1436% | 106.585% and 84.6939% | 145.728% and 140.005% | 185.058% and 111.866% | 118.453% and 112.646% | 54.9204% and 58.7504%
O=C(NC[C@@H]1[C@H]2CN(C(=O)OCc3cc(C(F)(F)F)cc(C(F)(F)F)c3)C[C@@H]12)c1ccc2[nH]nnc2c1 [BI 2545] | 93.6308% and 96.6365% | 84.4904% and 89.2857% | 189.417% and 138.094% | 118.998% and 92.5885% | 131.534% and 122.248% | 107.128% and 130.293%
COc1nc2ccc([C@@](O)(c3ccccc3)C3CCN(C(C)=O)CC3)cc2c(Cl)c1Cc1ccc(-n2cccn2)cc1 [JNJ-54119936] | 91.3508% and 107.676% | 118.142% and 99.7424% | 195.654% and 100.967% | 202.641% and 113.341% | 95.4238% and 127.913% | 99.5018% and 98.8422%
CC(=O)c1cc(-c2cc(C(=O)NC3CC3)ccc2C)c2ncccn12 | 100.074% and 118.158% | 94.4985% and 97.1957% | 163.828% and 97.8362% | 113.773% and 107.19% | 115.093% and 116.94% | 131.559% and 119.251%
O=C(NCC(=O)N1CCCC1)Nc1ccc2cnccc2c1 | 118.981% and 107.577% | 82.9956% and 91.8258% | 77.5338% and 89.49% | 125.69% and 99.4932% | 118.335% and 117.664% | 145.589% and 95.8311%
CNCCN1CCC(c2cc(CN(C)C(=O)c3cccc(Oc4ccccc4)c3)ccn2)CC1 | 118.858% and 106.989% | 108.266% and 112.768% | 65.766% and 84.3895% | 110.837% and 98.923% | 160.666% and 144% | 179.321% and 118.056%
O=C(NC[C@H](O)CN1CCc2ccccc2C1)c1ccnc(NC2CCC2)c1 | 82.4125% and 78.1842% | 61.8775% and 72.494% | 64.9401% and 74.8841% | 97.6148% and 75.2613% | 27.5023% and 69.1007% | 41.1138% and 71.2161%
Cc1cc(NC(=O)c2cccc(S(F)(F)(F)(F)F)c2)cc(-n2ccn3nc(-c4cccnc4)cc23)c1 [BAY-309] | 93.9876% and 96.6365% | 97.5385% and 109.184% | 161.366% and 84.5766% | 126.224% and 101.643% | 100.937% and 113.583% | 92.9473% and 106.13%
COc1ccc2c(c1)O[C@H](c1ccc(OC)c(OC)c1)C[C@@H]2NC(=O)C1(c2ccc3c(c2)OC(F)(F)O3)CC1 [A-1596584] | 106.5% and 117.861% | 103.505% and 102.481% | 121.374% and 104.664% | 90.4474% and 94.7661% | 59.7741% and 88.9069% | 99.5304% and 111.725%
COc1cc(C(=O)N2CC[C@@H](O)[C@@H](N)C2)cc2nc(-c3cc4ccccc4n3CC3CC3)n(C)c12.Cl | 95.6097% and 101.11% | 84.8651% and 86.9928% | 108.535% and 117.543% | 77.7437% and 99.4932% | 141.855% and 120.564% | 139.679% and 135.263%
CCOc1ccc(S(=O)(=O)Nc2ccc(Cl)cc2C#Cc2cnc(C(=O)[O-])cc2OC)c2ncccc12.[K+] | 102.626% and 139.142% | 112.375% and 81.0673% | 79.533% and 90.784% | 112.265% and 100.119% | 90.5182% and 89.6356% | 107.269% and 105.718%
Cl.O=C(O)c1cc(-c2ccc(C3CCNCC3)cc2)c2ccc(-c3ccc(C(F)(F)F)cc3)cc2c1 | 122.525% and 121.681% | 120.065% and 115.738% | 82.2902% and 109.541% | 53.2933% and 84.4568% | 91.1935% and 100.081% | 81.9268% and 87.9385%
